{
  "source": "patent US12077503B2",
  "about": "“Substituted cyclic amides and their use as herbicides” (FMC CORPORATION, priority 2015, dated 2024)",
  "assay_type_in_all_cases": "in vivo",
  "key": {"[1]": {"test_system": "barnyardgrass (Echinochloa crus-galli)", "assay": "Test A preemergence", "conditions": "Echinochloa crus-galli, pre-emergence, 240 h, Preemergence", "how_it_was_run": "(§1)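 Treatment is preemergence as a directed soil spray after planting, or postemergence at the one- to two-leaf stage, with test chemical in a non-phytotoxic solvent mixture plus surfactant. Plants stay in the greenhouse about 10 d before visual injury scoring on a 0 to 100 scale versus untreated controls.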"}, "[2]": {"test_system": "Kochia (Kochia scoparia)", "assay": "Test A preemergence", "conditions": "Bassia scoparia, pre-emergence, 240 h, Preemergence", "how_it_was_run": "as §1"}, "[3]": {"test_system": "ryegrass, Italian (Italian ryegrass, Lolium multiflorum)", "assay": "Test A preemergence", "conditions": "Lolium multiflorum, pre-emergence, 240 h, Preemergence", "how_it_was_run": "as §1"}, "[4]": {"test_system": "pigweed (Amaranthus retroflexus)", "assay": "Test A preemergence", "conditions": "Amaranthus retroflexus, pre-emergence, 240 h, Preemergence"}, "[5]": {"test_system": "giant foxtail (Setaria faberii)", "assay": "Test A preemergence", "conditions": "Setaria faberi, pre-emergence, 240 h, Preemergence", "how_it_was_run": "as §1"}, "[6]": {"test_system": "ragweed (common ragweed, Ambrosia elatior)", "assay": "Test A preemergence", "conditions": "Ambrosia artemisiifolia, pre-emergence, 240 h, Preemergence", "how_it_was_run": "as §1"}, "[7]": {"test_system": "barnyardgrass (Echinochloa crus-galli)", "assay": "Test A postemergence", "conditions": "Echinochloa crus-galli, post-emergence, 240 h, Postemergence", "how_it_was_run": "as §1"}, "[8]": {"test_system": "Kochia (Kochia scoparia)", "assay": "Test A postemergence", "conditions": "Bassia scoparia, post-emergence, 240 h, Postemergence, read-out: Kochia plant response rating (0 to 100 scale)", "how_it_was_run": "as §1"}, "[9]": {"test_system": "corn (Zea mays)", "assay": "Test A postemergence", "conditions": "Zea mays, post-emergence, 240 h, Postemergence, read-out: Corn plant response rating (0 to 100 scale)", "how_it_was_run": "as §1"}, "[10]": {"test_system": "ryegrass, Italian (Italian ryegrass, Lolium multiflorum)", "assay": "Test A postemergence", "conditions": "Lolium multiflorum, post-emergence, 240 h, Postemergence, read-out: Ryegrass, Italian plant response rating (0 to 100 scale)", "how_it_was_run": "as §1"}, "[11]": {"test_system": "wheat (Triticum aestivum)", "assay": "Test A postemergence", "conditions": "Triticum aestivum, post-emergence, 240 h, Postemergence, read-out: Wheat plant response rating (0 to 100 scale)", "how_it_was_run": "as §1"}, "[12]": {"test_system": "blackgrass (Alopecurus myosuroides)", "assay": "Test A postemergence", "conditions": "Alopecurus myosuroides, post-emergence, 240 h, Postemergence, read-out: Blackgrass plant response rating (0 to 100 scale)", "how_it_was_run": "as §1"}, "[13]": {"test_system": "pigweed (Amaranthus retroflexus)", "assay": "Test A postemergence", "conditions": "Amaranthus retroflexus, post-emergence, 240 h, Postemergence, read-out: Pigweed plant response rating (0 to 100 scale)", "how_it_was_run": "as §1"}, "[14]": {"test_system": "giant foxtail (Setaria faberii)", "assay": "Test A postemergence", "conditions": "Setaria faberi, post-emergence, 240 h, Postemergence, read-out: Foxtail, Giant plant response rating (0 to 100 scale)", "how_it_was_run": "as §1"}, "[15]": {"test_system": "ragweed (common ragweed, Ambrosia elatior)", "assay": "Test A postemergence", "conditions": "Ambrosia artemisiifolia, post-emergence, 240 h, Postemergence, read-out: Ragweed plant response rating (0 to 100 scale)", "how_it_was_run": "as §1"}, "[16]": {"test_system": "Galium (catchweed bedstraw, Galium aparine)", "assay": "Test A postemergence", "conditions": "Galium, post-emergence, 240 h, Postemergence, read-out: Galium plant response rating (0 to 100 scale)", "how_it_was_run": "as §1"}, "[17]": {"test_system": "barnyardgrass (Echinochloa crus-galli)", "assay": "Test B flooded paddy test", "conditions": "Echinochloa crus-galli, 360 h, Flood, 250 g ai/ha; visually evaluated after 13 to 15 d; read-out: Plant response rating, Barnyardgrass (0 to 100 scale where 0 is no effect and 100 is complete control)", "how_it_was_run": "(§2)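 Compound goes directly into floodwater once pots are flooded 3 cm above soil, targeting plants at two leaves; the water depth is then held for the test duration. Plants sit 13–15 d in a greenhouse and are rated visually, 100 denoting complete control.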"}, "[18]": {"test_system": "rice (Oryra sativa)", "assay": "Test B flooded paddy test", "conditions": "Oryza sativa, 360 h, Flood, 250 g ai/ha; visually evaluated after 13 to 15 d; read-out: Plant response rating, Rice (0 to 100 scale where 0 is no effect and 100 is complete control)", "how_it_was_run": "as §2"}, "[19]": {"test_system": "ducksalad (Heteranthera limosa)", "assay": "Test B flooded paddy test", "conditions": "Heteranthera limosa, 360 h, Flood, 250 g ai/ha; visually evaluated after 13 to 15 d; read-out: Plant response rating, Ducksalad (0 to 100 scale where 0 is no effect and 100 is complete control)", "how_it_was_run": "as §2"}, "[20]": {"test_system": "sedge, umbrella (small-flower umbrella sedge, Cyperus difformis)", "assay": "Test B flooded paddy test", "conditions": "Cyperus difformis, 360 h, Flood, 250 g ai/ha; visually evaluated after 13 to 15 d; read-out: Plant response rating, Sedge, Umbrella (0 to 100 scale where 0 is no effect and 100 is complete control)", "how_it_was_run": "as §2"}, "[21]": {"conditions": "125 g ai/ha, visual rating about 10 d after treatment"}, "[22]": {"conditions": "31 g ai/ha, 0 is no effect, 100 is complete control"}},
  "data": [
    {"smiles": "O=C1NC[C@H](c2cc(Br)cc(Br)c2)[C@H]1C(=O)Nc1cccc(F)c1F", "note": "[Compound 1366]", "values": [
      {"measurement": "pest or weed control at 31 g/ha", "setting": "[1]; 31 g ai/ha, 0 to 100 scale where 0 is no effect and 100 is complete control, read-out: Barnyardgrass plant response rating", "result": 60, "unit": "%"},
      {"measurement": "pest or weed control at 125 g/ha", "setting": "[1]; 125 g ai/ha, 0 to 100 scale (0 no effect, 100 complete control), read-out: Plant response rating, Barnyardgrass", "result": 70, "unit": "%"},
      {"measurement": "pest or weed control at 31 g/ha", "setting": "[2]; 31 g ai/ha, 0 to 100 scale where 0 is no effect and 100 is complete control, read-out: Kochia plant response rating", "result": 0, "unit": "%"},
      {"measurement": "pest or weed control at 125 g/ha", "setting": "[2]; 125 g ai/ha, 0 to 100 scale (0 no effect, 100 complete control), read-out: Plant response rating, Kochia", "result": 0, "unit": "%"},
      {"measurement": "pest or weed control at 31 g/ha", "setting": "[3]; 31 g ai/ha, 0 to 100 scale where 0 is no effect and 100 is complete control, read-out: Ryegrass, Italian plant response rating", "result": 0, "unit": "%"},
      {"measurement": "pest or weed control at 125 g/ha", "setting": "[3]; 125 g ai/ha, 0 to 100 scale (0 no effect, 100 complete control), read-out: Plant response rating, Ryegrass, Italian", "result": 10, "unit": "%"},
      {"measurement": "pest or weed control at 31 g/ha", "setting": "[4]; 31 g ai/ha, 0 to 100 scale where 0 is no effect and 100 is complete control, read-out: Pigweed plant response rating", "result": 0, "unit": "%"},
      {"measurement": "pest or weed control at 125 g/ha", "setting": "[4]; 125 g ai/ha, 0 to 100 scale (0 no effect, 100 complete control), read-out: Plant response rating, Pigweed", "result": 0, "unit": "%"},
      {"measurement": "pest or weed control at 31 g/ha", "setting": "[5]; 31 g ai/ha, 0 to 100 scale where 0 is no effect and 100 is complete control, read-out: Foxtail, Giant plant response rating", "result": 50, "unit": "%"},
      {"measurement": "pest or weed control at 125 g/ha", "setting": "[5]; 125 g ai/ha, 0 to 100 scale (0 no effect, 100 complete control), read-out: Plant response rating, Foxtail, Giant", "result": 90, "unit": "%"},
      {"measurement": "pest or weed control at 31 g/ha", "setting": "[6]; 31 g ai/ha, 0 to 100 scale where 0 is no effect and 100 is complete control, read-out: Ragweed plant response rating", "result": 0, "unit": "%"},
      {"measurement": "pest or weed control at 125 g/ha", "setting": "[6]; 125 g ai/ha, 0 to 100 scale (0 no effect, 100 complete control), read-out: Plant response rating, Ragweed", "result": 0, "unit": "%"},
      {"measurement": "pest or weed control at 125 g/ha", "setting": "[7]; 125 g ai/ha, visual rating about 10 d after treatment, read-out: Barnyardgrass plant response rating (0 to 100 scale, 0 no effect, 100 complete control)", "result": 70, "unit": "%"},
      {"measurement": "pest or weed control at 31 g/ha", "setting": "[7]; 31 g ai/ha, 0 is no effect, 100 is complete control, read-out: Barnyardgrass plant response rating (0 to 100 scale)", "result": 20, "unit": "%"},
      {"measurement": "pest or weed control at 125 g/ha", "setting": "[8]; [21]", "result": 0, "unit": "%"},
      {"measurement": "pest or weed control at 31 g/ha", "setting": "[8]; [22]", "result": 0, "unit": "%"},
      {"measurement": "plant injury at 125 g/ha", "setting": "[9]; [21]", "result": 0, "unit": "%"},
      {"measurement": "plant injury at 31 g/ha", "setting": "[9]; [22]", "result": 0, "unit": "%"},
      {"measurement": "pest or weed control at 125 g/ha", "setting": "[10]; [21]", "result": 0, "unit": "%"},
      {"measurement": "pest or weed control at 31 g/ha", "setting": "[10]; [22]", "result": 0, "unit": "%"},
      {"measurement": "plant injury at 125 g/ha", "setting": "[11]; [21]", "result": 0, "unit": "%"},
      {"measurement": "plant injury at 31 g/ha", "setting": "[11]; [22]", "result": 0, "unit": "%"},
      {"measurement": "pest or weed control at 125 g/ha", "setting": "[12]; [21]", "result": 0, "unit": "%"},
      {"measurement": "pest or weed control at 31 g/ha", "setting": "[12]; [22]", "result": 0, "unit": "%"},
      {"measurement": "pest or weed control at 125 g/ha", "setting": "[13]; [21]", "result": 80, "unit": "%"},
      {"measurement": "pest or weed control at 31 g/ha", "setting": "[13]; [22]", "result": 0, "unit": "%"},
      {"measurement": "pest or weed control at 125 g/ha", "setting": "[14]; [21]", "result": 70, "unit": "%"},
      {"measurement": "pest or weed control at 31 g/ha", "setting": "[14]; [22]", "result": 30, "unit": "%"},
      {"measurement": "pest or weed control at 125 g/ha", "setting": "[15]; [21]", "result": 0, "unit": "%"},
      {"measurement": "pest or weed control at 31 g/ha", "setting": "[15]; [22]", "result": 0, "unit": "%"},
      {"measurement": "pest or weed control at 125 g/ha", "setting": "[16]; [21]", "result": 70, "unit": "%"},
      {"measurement": "pest or weed control at 31 g/ha", "setting": "[16]; [22]", "result": 0, "unit": "%"},
      {"measurement": "pest or weed control at 250 g/ha", "setting": "[17]", "result": 40, "unit": "%"},
      {"measurement": "pest or weed control at 250 g/ha", "setting": "[18]", "result": 0, "unit": "%"},
      {"measurement": "pest or weed control at 250 g/ha", "setting": "[19]", "result": 80, "unit": "%"},
      {"measurement": "pest or weed control at 250 g/ha", "setting": "[20]", "result": 0, "unit": "%"}
    ]}
  ]
}
